The record followed here is article doi:10.1101/2025.02.17.638454, “Synergistic RAS-MAPK and AKT Activation in MYC-Driven Tumors via Adjacent PVT1 Rearrangements” (bioRxiv, 2025).

The subject of one data set is KRAS dimerization. Briefly: Acceptor photobleaching FRET of CFP-KRAS/YFP-KRAS in D458. Format: cell-based. Conditions: shRNA1.PVT1ts D458 with doxycycline-induced HNB; n=10, one-way ANOVA. The method, then:
pcDNA3.1 CFP-KRAS (#112717) and pcDNA3.1 YFP-KRAS (#112718) were purchased from Addgene. The plasmids were co-transfected into D458 cells in a 35 mm cell culture dish with glass bottom. The cells were imaged live 48 hours after transfection on the Nikon Super Resolution Confocal Microscope. CFP was excited using 405–445nm laser and YFP was excited using the 514 nm laser. YFP was photobleached at 80% power for 1 minute and the CFP and YFP were imaged after photobleaching using the respective laser and filters. The images were analyzed in Fiji, ImageJ. […]
bioRxiv preprint doi: https://doi.org/10.1101/2025.02.17.638454; this version posted February 22, 2025. The copyright holder for this preprint (which was not certified by peer review) is the author/funder, who has granted bioRxiv a license to display the preprint in perpetuity. It is made available under a CC-BY 4.0 International license .
Supplementary Figure 22: HNB regulates KRAS dimerization (A) Schematic representation of KRAS dimerization using acceptor photobleaching FRET assay. (B) Schematic representation of KRAS dimerization on knocking down HNB using shRNA1-PVT1ts. (C) Representative images showing signals for CFP-KRAS and YFP-KRAS. […]
Images were taken at 60X oil; the scale bar is 10µm. […] (p-value calculated by one-way ANOVA, n=10). […] (p-value calculated by one-way ANOVA, n=10). […]

The test system of a further data set is D458 cells. The data set can be described thus: Proliferation assay D458. The format is cell-based, human.
The next data set has as its system COLO-320DM cells. Briefly: Proliferation assay COLO-320DM. Particulars: COLO320DM. The format is cell-based, human.
Data set [1] deals with MYC. The data set can be described thus: Western blot of MYC in D458. The format is cell-based, human. As to the method:
For whole-cell lysate, the cell pellet was resuspended in RIPA buffer (Cell Signaling Technologies, Danvers, MA) supplemented with a protease inhibitor cocktail (Cell Signaling Technologies) and incubated on ice for 20 minutes. The lysate was then centrifuged at 14,000 revolutions/minute for 10 minutes at 4°C, and the supernatant was harvested. Protein concentration was quantified by BCA Protein Assay Kit (Thermo Fisher Scientific) as per kit protocol. Next, 20 μg of whole-cell lysate was electrophoresed on a 4%–20% gradient polyacrylamide gel with SDS (Bio-Rad, Hercules, CA) and electroblotted onto polyvinylidene difluoride membranes (Bio-Rad). Membranes were blocked in Tris-buffered saline with 5% nonfat milk and 0.1% Tween and probed with antibodies. Bound proteins were detected with horseradish-peroxidase–conjugated secondary antibodies (Cell Signaling Technologies) and SuperSignal West Femto (Thermo Fisher Scientific). Antibodies used were anti-c-MYC (Cell Signaling Technology, 5605, anti-Phospho-c-MYC (Ser62) (Cell Signaling Technology, 13748), anti-β ACTIN (Cell Signaling Technology, 8457), anti-Phospho-p44/42 (Erk1/2) (Thr202/Tyr204) (Cell Signaling Technology, 4370), anti-p44/42 (Erk1/2) (Cell Signaling Technology, 4695), anti-Phospho-MEK1/2 (Ser217/221) (Cell Signaling Technology, 9154), anti-MEK1/2 (Cell Signaling Technology, 9122), anti-Phospho-p90RSK (Ser380) (Cell Signaling Technology, 11989), anti-RSK1/RSK2/RSK3 (Cell Signaling Technology, 9355), Anti-Rabbit IgG, HRP-linked Antibody (Cell Signaling Technology, 7074). Anti-FFX (Firefox) monoclonal antibodies were custom produced by Proteintech using FFX residues 13–104 as epitope.
The HNB ORF and eGFP (control) were cloned in an inducible lentivirus expression, TRE-gateway plasmid (pLIX_403, Addgene, #41395). Lentivirus was produced in HEK293T cells using the protocol described above. D458, NCI-H1792 and COLO 320DM cells were transfected with inducible HNB lentivirus and selected with 1 μg/mL concentration of Puromycin. Selected cells were seeded at a concentration of 4 × 10^5 cells per well. After 24 hours of seeding, the cells were treated with 1 μg/mL Doxycycline for 48 hours. The cells were then lysed using RIPA buffer and 1X protease inhibitor cocktail. The protein lysates were collected and quantified using the previously described protocol. 20 μg of whole-cell lysate was electrophoresed on a 4%–20% gradient polyacrylamide gel with SDS (Bio-Rad, Hercules, CA) and electroblotted onto polyvinylidene difluoride membranes (Bio-Rad). […] Bound proteins were detected with horseradish-peroxidase–conjugated secondary antibodies (Cell Signaling Technologies) and SuperSignal West Femto (Thermo Fisher Scientific). […]

Data set [2] deals with MYC. Briefly: Western blot of MYC in COLO-320DM. Conditions: COLO320DM. Format: cell-based, human. The method, then:
For whole-cell lysate, the cell pellet was resuspended in RIPA buffer (Cell Signaling Technologies, Danvers, MA) supplemented with a protease inhibitor cocktail (Cell Signaling Technologies) and incubated on ice for 20 minutes. The lysate was then centrifuged at 14,000 revolutions/minute for 10 minutes at 4°C, and the supernatant was harvested. Protein concentration was quantified by BCA Protein Assay Kit (Thermo Fisher Scientific) as per kit protocol. Next, 20 μg of whole-cell lysate was electrophoresed on a 4%–20% gradient polyacrylamide gel with SDS (Bio-Rad, Hercules, CA) and electroblotted onto polyvinylidene difluoride membranes (Bio-Rad). Membranes were blocked in Tris-buffered saline with 5% nonfat milk and 0.1% Tween and probed with antibodies. Bound proteins were detected with horseradish-peroxidase–conjugated secondary antibodies (Cell Signaling Technologies) and SuperSignal West Femto (Thermo Fisher Scientific). […]
The HNB ORF and eGFP (control) were cloned in an inducible lentivirus expression, TRE-gateway plasmid (pLIX_403, Addgene, #41395). […] The protein lysates were collected and quantified using the previously described protocol. […] Bound proteins were detected with horseradish-peroxidase–conjugated secondary antibodies (Cell Signaling Technologies) and SuperSignal West Femto (Thermo Fisher Scientific). […]

No end group written: not given here.

As for MKTQLGAVKGFLHV [HNB], the “CFP (donor) fluorescence after photobleaching of YFP” value with KRAS dimerization was “mitigated the augmented CFP fluorescence”. The cellular proliferation entry is given as “significantly reduced cellular proliferation” in the data set on D458 cells (D458, induction of HNB or HNB mutant (+/- Dox)) and “significantly reduced cellular proliferation” in the data set with COLO-320DM cells (induction of HNB (-/+ Dox), P=0.0002). The MYC protein level result with MYC [1] (D458, induction of HNB (-/+ Dox)) is listed as “significantly reduced MYC expression at the mRNA as well as the protein levels”; with MYC [2] (induction of HNB (-/+ Dox)), “significantly reduced MYC expression at the mRNA as well as the protein levels”.
For “si.CircPVT1: siRNA targeting the junction sequence of CircPVT1, 5’-UGGGCUUGAGGCCUGAUCUUU-3’ (other strand not given here)”, the cellular proliferation result with D458 cells (D458, transfection with si.CircPVT1 vs si.Ctrl, n=3, two-way ANOVA) is reported as “reduced cellular proliferation”; in the data set on COLO-320DM cells (si.CircPVT1 vs si.Ctrl, n=3, two-way ANOVA, P<0.0001), “reduced cellular proliferation”. Also, the MYC protein result in the data set on MYC [1] (D458, si.CircPVT1 vs si.Ctrl, n=3, unpaired t test) is given as “significant reduction of MYC protein”; in the data set with MYC [2] (si.CircPVT1 vs si.Ctrl, n=3, unpaired t test, <0.0001) it was “significant reduction of MYC protein”.
